Like-named read-outs stand apart in the source and are kept apart here.

Common to all, as to format: biochemical
In one assay the target is T1, G9a (Homo sapiens, UniProt Q96KQ7).
T1 construct: purchased BPS 51001
T1 sequence (Q96KQ7 785-1210 limits assumed): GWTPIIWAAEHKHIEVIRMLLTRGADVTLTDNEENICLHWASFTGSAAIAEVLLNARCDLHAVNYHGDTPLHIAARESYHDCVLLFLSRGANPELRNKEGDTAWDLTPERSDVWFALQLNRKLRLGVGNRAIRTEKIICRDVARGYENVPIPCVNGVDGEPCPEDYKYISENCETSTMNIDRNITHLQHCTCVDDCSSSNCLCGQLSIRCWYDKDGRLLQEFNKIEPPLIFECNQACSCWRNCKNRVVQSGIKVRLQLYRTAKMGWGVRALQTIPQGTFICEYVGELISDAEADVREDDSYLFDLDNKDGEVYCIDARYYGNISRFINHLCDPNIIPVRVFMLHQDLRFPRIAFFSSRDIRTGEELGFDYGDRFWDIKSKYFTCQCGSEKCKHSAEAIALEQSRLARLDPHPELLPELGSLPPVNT
Briefly: Enzymatic selectivity assay G9a (Alpha mode). The following applies: read-out: Inhibition Ratio at 100 μM/%. The method, then: (§1) For SETD1B, G9a and SMYD2, the activities against those targets were tested in modified Tris buffer (1× assay buffer). All the solid compounds were dissolved to 20 mM in 100% DMSO. The materials used were SETD1B (Active Motif, Cat. No. M1083, Carlsbad, CA, USA), G9a (BPS, Cat. No. 51001, San Diego, CA, USA), […] and 384-well plate (Perkin Elmer, Cat. No. 6007299). Both the enzyme solution and the substrate solution were prepared in 1× assay buffer enzyme solution or 1× assay buffer for low control was transferred to the assay plate. Then substrate mix solution was added to each well to start the solution for 15 min incubation at room temperature. For SETD1B, G9a, the incubation time was adjusted to 60 min and for SMYD2, the incubation time was set to 240 min. For detection, acceptor and donor beads were added and incubated for 60 min at room temperature, shielded from light. The endpoint was evaluated with EnSpire in Alpha mode.

Assay [1] concerns the target T2, SET7 (Homo sapiens, UniProt Q8WTS6).
T2 sequence (Q8WTS6 1-366): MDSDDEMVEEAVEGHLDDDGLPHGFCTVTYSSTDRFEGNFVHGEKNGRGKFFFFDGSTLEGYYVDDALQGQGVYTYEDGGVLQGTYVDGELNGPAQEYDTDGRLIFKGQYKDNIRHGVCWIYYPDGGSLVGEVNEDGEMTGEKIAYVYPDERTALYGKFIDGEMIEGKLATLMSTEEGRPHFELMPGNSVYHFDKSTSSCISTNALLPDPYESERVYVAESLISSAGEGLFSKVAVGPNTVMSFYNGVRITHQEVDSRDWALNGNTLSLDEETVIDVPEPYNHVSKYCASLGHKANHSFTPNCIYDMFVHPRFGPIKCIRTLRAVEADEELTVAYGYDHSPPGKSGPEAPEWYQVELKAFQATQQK
Briefly: 3H-labeled radioisotope methylation assay. The following applies: 3H radioactive methylation assay. The method, then: As for ^3Hradioactive methylation assay, SAH was used as the reference compound and the compounds were tested in 10 concentrations in duplicate in modified Tris buffer (1× assay buffer). The following materials were purchased: SET7 (Enzo, Cat. No. ALX-201-178, New York, NY, USA), [^3H]-SAM (PerkinElmer Inc., Lot. No. 1790854), SAH (Sigma, Cat. No. A9384-25MG, St. Louis, MO, USA) and 384-well Flashplate (Perkin Elmer, Cat. No. SMP410A001PK,). The compounds were transferred to the assay plate by Echo 550 with 3-fold dilution in 100% DMSO where the final DMSO concentration is 1%. Then the enzyme solution was transferred to the assay plate and 1× assay buffer was transferred for low control. After 15 min incubation at room temperature, peptide and [^3H]-SAM mix solution was transferred to each well to start the reaction. The cold SAM in 1× buffer was added to each well to stop the reaction after 60 min incubation at room temperature. 25 μL of the whole reaction system per well was transferred to Flashplate which was washed with dH2O and 0.1% Tween-20 for three times after 60 min incubation. The data was read on Microbeta. All the inhibition assays are performed in duplicate.

The next assay addresses T3, SETD1B (Homo sapiens, UniProt Q9UPS6).
T3 construct: purchased Active Motif M1083
Briefly: Enzymatic selectivity assay SETD1B (Alpha mode). The following applies: read-out: Inhibition Ratio at 100 μM/%. The method, then:
as §1

Assay [2] deals with T2, SET7. Briefly: AlphaLISA SET7 inhibition assay. The following applies: for inhibition at 100 µM: read-out: Inhibition Ratio at 100 μM/%. The method, then: AlphaLISA assays were applied to determine the inhibitory activity targeting SET7. The purified SET7 protein was incubated in modified Tris buffer in 384-well plates (Perkin Elmer, Cat. No. 6007299, Waltham, MA, USA) at room temperature for 15 min. The compounds were transferred to the assay plate using Echo in 100% DMSO, and substrate solution was added to each well to start the reaction. Acceptor and donor beads were added and incubated for 60 min at room temperature, shielded from light. The endpoint was evaluated with EndSpire in Alpha mode. The experimental data was fitted in GraphPad Prism 5 to obtain inhibition values using the equation as follows:(1) Inhibition %= Max−Siginal/Max−Min×100%

The next assay has as its target T4, SMYD2 (Homo sapiens, UniProt Q9NRG4).
T4 construct: purchased Active Motif 31323
In words: Enzymatic selectivity assay SMYD2 (Alpha mode). The following applies: SMYD2, 100 μM; read-out: Inhibition Ratio at 100 μM/%. The method, then: as §1

A further assay has as its target T5, SETD8 (Homo sapiens, UniProt Q9NQR1).
T5 sequence (Q9NQR1 1-393): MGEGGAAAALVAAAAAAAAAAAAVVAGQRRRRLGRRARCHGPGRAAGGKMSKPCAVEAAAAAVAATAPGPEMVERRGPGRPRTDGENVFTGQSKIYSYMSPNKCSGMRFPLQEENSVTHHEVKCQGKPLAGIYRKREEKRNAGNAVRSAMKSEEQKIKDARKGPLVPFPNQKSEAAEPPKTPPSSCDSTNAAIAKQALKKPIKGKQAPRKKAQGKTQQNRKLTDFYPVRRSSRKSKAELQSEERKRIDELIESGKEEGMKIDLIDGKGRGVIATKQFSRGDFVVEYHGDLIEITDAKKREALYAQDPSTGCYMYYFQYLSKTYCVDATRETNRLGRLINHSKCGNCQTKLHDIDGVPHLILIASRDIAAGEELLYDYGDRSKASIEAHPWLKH
Briefly: Radioactive methylation inhibition assay of SETD8. To be noted: SETD8, 100 μM; read-out: Inhibition Ratio at 100 μM/%. The method, then:
The radioactive methylation inhibition assay of SETD8 was performed in modified Tris buffer. […] and [^3H]-SAM (PerkinElmer, Cat No. NET1551MC) were added in 1x buffer as the substrate solution. The enzyme solution was incubated at room temperature for 15 min before substrate solution was added to each well to start the reaction. Cold SAM (Sigma, Cat. No. 7007-100MG) was added in 1x buffer to prepare the stop mix, and was added to stop the reaction; finally 10 μL of the reaction system was transferred to flashplate (PerkinElmer Inc., Cat. No. SMP410A001PK) and incubated at room temperature for a minimum of 2 h. The plate was washed three times with dH2O and 0.1% Tween-20, and the radioactivity signal was detected by liquid scintillation counting (MicroBeta, PerkinElmer). SAH was used as the reference compound.

A further assay addresses EZH2 (Homo sapiens, UniProt Q15910). Briefly: Radioactive methylation inhibition assay of EZH2. The following applies: EZH2, 100 μM. The method, then:
The radioactive methylation inhibition assay of EZH2 was performed in modified Tris buffer. H3K27me peptide and [^3H]-SAM (Perkin Elmer Inc. Waltham, MA, USA, Lot. No. 1731619) were added in 1x buffer as the substrate solution. The […] solution was incubated at room temperature for 15 min before substrate solution was added to each well to start the reaction. Cold SAM (Sigma, Cat. NO. 7007) was added in 1× buffer to prepare stop mix (final concentration 0.5 mM), and was added to stop the reaction; finally 25 μL of the reaction system was transferred to a FlashPlate (Perkin Elmer, Cat. No. SMP410A001PK) and incubated at room temperature for a minimum of 1 h. The plate was washed three times with dH2O and 0.1% Tween-20, and the radioactivity was determined by liquid scintillation counting (MicroBeta). GSK-126 was used as the reference compound.

T4 sequence (Q9NRG4 whole entry): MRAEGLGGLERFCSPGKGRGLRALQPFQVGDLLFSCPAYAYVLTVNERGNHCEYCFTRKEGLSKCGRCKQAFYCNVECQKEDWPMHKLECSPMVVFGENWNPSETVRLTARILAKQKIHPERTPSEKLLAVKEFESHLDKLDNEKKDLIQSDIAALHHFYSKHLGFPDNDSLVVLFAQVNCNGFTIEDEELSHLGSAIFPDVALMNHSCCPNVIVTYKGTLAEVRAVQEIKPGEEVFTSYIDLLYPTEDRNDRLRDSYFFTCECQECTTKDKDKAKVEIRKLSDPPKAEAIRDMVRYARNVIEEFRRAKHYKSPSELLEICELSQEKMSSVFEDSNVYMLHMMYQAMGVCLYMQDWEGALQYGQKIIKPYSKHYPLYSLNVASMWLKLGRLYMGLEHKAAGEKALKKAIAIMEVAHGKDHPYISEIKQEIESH
Chain of EZH2 (Q15910 whole entry, species assumed): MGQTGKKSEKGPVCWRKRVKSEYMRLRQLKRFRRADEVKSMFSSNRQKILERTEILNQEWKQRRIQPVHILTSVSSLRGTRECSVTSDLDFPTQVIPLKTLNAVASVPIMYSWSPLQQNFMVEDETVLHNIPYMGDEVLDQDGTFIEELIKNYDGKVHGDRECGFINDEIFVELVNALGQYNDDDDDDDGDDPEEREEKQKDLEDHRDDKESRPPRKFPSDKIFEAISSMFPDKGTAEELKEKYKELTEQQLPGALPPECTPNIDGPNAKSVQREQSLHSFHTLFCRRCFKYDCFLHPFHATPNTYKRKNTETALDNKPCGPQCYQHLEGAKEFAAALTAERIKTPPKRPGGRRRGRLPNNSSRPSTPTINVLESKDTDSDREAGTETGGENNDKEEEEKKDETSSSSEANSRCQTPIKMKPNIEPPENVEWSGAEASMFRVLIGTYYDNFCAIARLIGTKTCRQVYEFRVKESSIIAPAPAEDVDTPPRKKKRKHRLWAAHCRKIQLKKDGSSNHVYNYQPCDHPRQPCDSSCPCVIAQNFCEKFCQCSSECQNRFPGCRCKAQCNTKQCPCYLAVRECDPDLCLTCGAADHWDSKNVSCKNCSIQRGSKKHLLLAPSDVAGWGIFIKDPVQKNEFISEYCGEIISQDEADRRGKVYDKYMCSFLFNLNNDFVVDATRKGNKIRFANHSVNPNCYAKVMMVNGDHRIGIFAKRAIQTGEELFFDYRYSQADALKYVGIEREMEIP
Chain of EZH2 (O75530 whole entry partner, species assumed): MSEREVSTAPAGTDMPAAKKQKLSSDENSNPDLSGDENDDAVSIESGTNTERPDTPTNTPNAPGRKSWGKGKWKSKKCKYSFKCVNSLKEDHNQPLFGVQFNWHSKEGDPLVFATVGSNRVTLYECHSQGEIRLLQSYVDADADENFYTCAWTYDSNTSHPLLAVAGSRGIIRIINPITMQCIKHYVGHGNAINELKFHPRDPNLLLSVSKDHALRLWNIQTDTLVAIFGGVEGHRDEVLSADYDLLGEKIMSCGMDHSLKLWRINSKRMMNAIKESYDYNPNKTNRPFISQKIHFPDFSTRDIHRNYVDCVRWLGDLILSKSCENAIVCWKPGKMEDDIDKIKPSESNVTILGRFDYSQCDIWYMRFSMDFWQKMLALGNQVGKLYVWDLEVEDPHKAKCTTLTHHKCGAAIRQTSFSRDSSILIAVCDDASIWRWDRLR
Chain of EZH2 (Q15022 whole entry partner, species assumed): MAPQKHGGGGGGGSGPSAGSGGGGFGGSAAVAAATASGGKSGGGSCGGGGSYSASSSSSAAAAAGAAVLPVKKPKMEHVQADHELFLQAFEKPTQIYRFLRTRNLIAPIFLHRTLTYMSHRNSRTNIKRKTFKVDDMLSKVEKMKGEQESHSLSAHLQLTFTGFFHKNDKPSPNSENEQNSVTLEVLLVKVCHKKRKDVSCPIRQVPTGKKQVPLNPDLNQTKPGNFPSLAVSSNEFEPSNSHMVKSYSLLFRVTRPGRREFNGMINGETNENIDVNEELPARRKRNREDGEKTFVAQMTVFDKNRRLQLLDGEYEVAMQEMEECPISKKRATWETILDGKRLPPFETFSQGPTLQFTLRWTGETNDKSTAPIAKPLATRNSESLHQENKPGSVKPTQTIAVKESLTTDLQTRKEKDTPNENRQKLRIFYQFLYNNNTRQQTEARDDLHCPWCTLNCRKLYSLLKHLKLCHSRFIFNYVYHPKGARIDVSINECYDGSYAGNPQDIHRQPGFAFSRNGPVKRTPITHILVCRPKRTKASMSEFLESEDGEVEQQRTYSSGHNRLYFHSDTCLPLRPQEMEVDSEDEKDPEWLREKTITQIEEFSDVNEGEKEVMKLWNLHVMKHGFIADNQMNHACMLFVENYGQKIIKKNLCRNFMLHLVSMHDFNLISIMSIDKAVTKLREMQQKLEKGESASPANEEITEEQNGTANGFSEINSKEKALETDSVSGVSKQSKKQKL

For the compound `O=C(N/N=C/c1cc([N+](=O)[O-])ccc1Cl)c1ccc(-c2ccccc2)cc1` [DC-S303], the inhibition at 100 µM is 52.6% on G9a; 27.1% at SETD1B; 99% at SET7 [2] (AlphaLISA assay, SET7, 100 μM); 90.5% at SET7 [2] (SETD7, 100 μM, selectivity panel (Table 3)); 24.6% at SMYD2; 55.2% at SETD8. Besides, the IC50 on SET7 [1] stood at 2900 nM; at SET7 [2] (AlphaLISA assay, SET7), 1100 nM. Besides, on EZH2, the “Inhibition Ratio at 100 μM/%” value was determined as 47.88%.

Usually IC50 stands for the concentration needed to halve the response being measured.
